In brackets after ≈: the same amount, converted by molar mass. Numbered stars: 1 amine (or outer) side, 2 acyl side, 3 side chain; on linkers, the order of the positions; unused ones are H or OH. Square brackets hold non-standard residues; d marks the D form. Side chains are listed from the residue outwards. Peptide text beside a SMILES is read from it. * marks the point of attachment. C18 diacid = O=C(O)CCCCCCCCCCCCCCCCC(=O)*; γGlu = O=C(O)[C@H](CCC(=O)[*:2])N[*:1]; dIva = CC[C@@](C)(N)C(=O)O; AEEA = NCCOCCOCC(=O)O; Aib = CC(C)(N)C(=O)O

The nature of data set [1]: Solubility assessment (UHPLC-UV of supernatant, target 10 mg/ml). The class given is physicochemical. Conditions: pH 7.4, Soluble amount. How it is done: Prior to the solubility measurement of a peptide batch, its purity was determined through UHPLC/MS.
Therefore, solutions from solid samples were prepared in a buffer system with a concentration of 10 mg/ml compound based on the previously determined % purity: • Solubility buffer system A) 100 mM phosphate buffer pH 7.4 • Solubility buffer system B) 8 mM phosphate buffer pH 7.4, 14 mg/ml propylene glycol, 5.5 mg/ml phenol • Solubility buffer system C) 100 mM phosphate buffer pH 7.4, 2.7 mg/ml m-cresol
UHPLC-UV was performed after 1 h of gentle agitation and storage at 5° C. overnight (24 h) from the supernatant, which was obtained after 15 min of centrifugation at 2500 RCF (relative centrifugal acceleration).
The different UV extinction coefficients of sample and reference peptide were calculated based on the different amino acid sequences and considered in the concentration calculation.
The analytical method used was Analytical UHPLC Method A.
Peptide samples were prepared in solubility buffer system A or C and solubility was assessed as described in Methods.

The target in data set [2] is human GLP-1 receptor (hGLP-1R) (Homo sapiens, UniProt P43220). Briefly: In vitro cellular cAMP assay for GLP-1 receptor efficacy (HEK-293 cell line over-expressing receptor). Format: cell-based. Conditions: HEK-293, 0.1% BSA. In general terms: cAMP levels reflect the balance of adenylyl cyclase and phosphodiesterase activity.
human GLP-1 receptor (hGLP-1R), sequence (P43220 24-463): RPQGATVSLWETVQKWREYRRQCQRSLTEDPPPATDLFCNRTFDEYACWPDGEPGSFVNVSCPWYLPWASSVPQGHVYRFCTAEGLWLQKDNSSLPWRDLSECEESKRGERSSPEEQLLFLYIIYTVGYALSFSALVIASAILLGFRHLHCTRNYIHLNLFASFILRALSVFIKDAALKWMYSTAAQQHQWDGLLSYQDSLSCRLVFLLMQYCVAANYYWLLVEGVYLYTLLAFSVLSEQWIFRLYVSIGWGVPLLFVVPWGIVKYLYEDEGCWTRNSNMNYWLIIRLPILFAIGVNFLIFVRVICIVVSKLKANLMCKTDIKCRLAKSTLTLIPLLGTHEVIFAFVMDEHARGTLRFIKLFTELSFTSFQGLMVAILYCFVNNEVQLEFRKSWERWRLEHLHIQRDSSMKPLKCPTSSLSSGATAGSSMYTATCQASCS
In data set [3] the target is T1, human GIP receptor (Homo sapiens, UniProt P48546).
T1 construct: human adipocytes endogenously expressing the human GIP receptor; host or cells: human preadipocytes (Lonza) differentiated to adipocytes
T1 sequence (P48546 22-466): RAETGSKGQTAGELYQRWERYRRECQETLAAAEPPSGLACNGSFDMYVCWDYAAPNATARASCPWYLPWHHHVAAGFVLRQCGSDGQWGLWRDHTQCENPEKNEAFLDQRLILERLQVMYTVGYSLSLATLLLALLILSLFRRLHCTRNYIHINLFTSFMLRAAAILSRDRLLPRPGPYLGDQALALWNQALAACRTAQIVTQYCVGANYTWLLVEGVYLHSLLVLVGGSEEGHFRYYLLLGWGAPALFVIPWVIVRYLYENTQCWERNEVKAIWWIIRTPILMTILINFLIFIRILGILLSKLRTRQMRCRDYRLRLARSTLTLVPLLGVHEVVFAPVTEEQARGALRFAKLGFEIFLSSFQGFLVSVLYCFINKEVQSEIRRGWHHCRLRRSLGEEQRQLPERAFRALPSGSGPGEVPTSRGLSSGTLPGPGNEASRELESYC
Briefly: In vitro cellular cAMP assay for GIP receptor efficacy (human adipocytes). Format: cell-based. How it is done: For this, one vial of human preadipocytes (˜10^6 cells; Lonza) was thawed in a T-75 cell culture dish. The cells were cultivated at 37° C., 5% CO2, 95% humidity in Preadipocyte Growth Medium with Supplement Mix from Promo Cell.
After 3 days, the cells were washed with PBS and 1.5 ml Trypsin, incubated for 4 min, then resuspended in medium, centrifugated for 10 min @ 300 rcf RT, resuspended again and distributed to four T-75 cell culture dishes. Again, the cells were cultivated at 37° C., 5% CO2, 95% humidity.
After 5 days, the cells were washed with PBS and 1.5 ml Trypsin, incubated for 4 min, then resuspended in medium, centrifugated for 10 min @ 300 rcf RT, resuspended again and sawn in T-75 dishes (2.5×10^6 cells per dish) in 15 ml Differentiation medium each.
The differentiation medium had the following composition: DMEM (Gibco), Ham's F10 (Gibco), 15 mM HEPES (Gibco), 3% FCS (PAA), 33 μM biotin (Sigma-Aldrich), 17 μM Pantothenate (Sigma-Aldrich), 0.1 μM human insulin (Sigma-Aldrich), 1 μM dexamethason (Sigma-Aldrich), 0.1 μM PPARgamma agonist (#R2408, Sigma-Aldrich), 0.6×Anti-Anti (#15240, ThermoFisher), 200 μM IBMX (AppliChem), and 0.01 μM L-thyroxine (Sigma-Aldrich).
After 6 days of differentiation, 5000 cells per well were dispensed on a 96-well plate (#CLS3694 from Corning®, Sigma-Aldrich). For measurement of cAMP generation, 25 μL of test compound was added to each well of the 96-well plate, followed by incubation for 30 min at room temperature.
The cAMP generated following test compound stimulation was determined using a kit from Cisbio Corp. based on HTRF (Homogenous Time Resolved Fluorescence). The cAMP assay was performed according to manufacturer's instructions (Cisbio).
The cAMP content of cells was determined using a kit from Cisbio Corp. based on HTRF (Homogenous Time Resolved Fluorescence).
After addition of HTRF reagents diluted in lysis buffer (kit components), the plates were incubated for 1 h, followed by measurement of the fluorescence ratio at 665/620 nm.

The target in data set [4] is T2, human GIP receptor (hGIPR) (Homo sapiens, UniProt P48546).
T2 sequence (P48546 22-466): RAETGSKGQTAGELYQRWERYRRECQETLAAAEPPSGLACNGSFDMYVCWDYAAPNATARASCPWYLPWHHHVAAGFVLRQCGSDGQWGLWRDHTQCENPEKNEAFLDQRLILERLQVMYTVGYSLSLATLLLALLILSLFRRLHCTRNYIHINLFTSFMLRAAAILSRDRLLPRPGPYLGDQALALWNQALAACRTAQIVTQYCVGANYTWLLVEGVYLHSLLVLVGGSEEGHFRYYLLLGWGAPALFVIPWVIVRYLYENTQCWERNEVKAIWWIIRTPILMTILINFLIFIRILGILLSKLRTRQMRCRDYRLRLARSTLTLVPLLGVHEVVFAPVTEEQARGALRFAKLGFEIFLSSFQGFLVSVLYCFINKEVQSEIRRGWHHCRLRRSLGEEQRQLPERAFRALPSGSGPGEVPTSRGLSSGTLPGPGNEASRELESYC
Nature of the data set: Binding assay, displacement of [125I]GIP from HEK-293 membranes over-expressing GIPR (SPA). Conditions: [125I]GIP displacement. As to the method:
(1) Preparation of Membranes from HEK-293 Cells Over-Expressing GIPR or GLP-1R
HEK-293 cells recombinantly over-expressing GIPR or GLP-1R were grown to 50% confluency, washed with warm 1×PBS (Gibco) and detached in HEPES/EDTA-buffer (100 mM HEPES pH 7.5, 5 mM EDTA). Cells were harvested by centrifugation at 4° C. and 3000×g and the pellets were stored at −80° C. until further processing.
After thawing on ice, pellets were resuspended in HEPES/EDTA-buffer and homogenized on ice for 1 min using Ultra-Turray T25. After subsequent sonification the cell debris was removed by centrifugation at 1000×g and 4° C. Supernatants were then ultra-centrifuged at 100000×g and 4° C. under vacuum for 30 min. Pellets were resuspended in HEPES/EDTA/NaCl-buffer (20 mM HEPES, 1 mM EDTA, 150 mM NaCl; add 1 Complete Mini Protease inhibitor cocktail to 10 ml buffer) and protein content was determined via BCA-Protein assay.
(2) Measurement of Binding Activity of Test Compounds to Human GIPR or GLP-1R
For orientation: Displacement assays read how much labelled ligand stays bound in the presence of the test substance.

In turn, `CC[C@H](C)[C@H](NC(=O)[C@H](CCCNC(=N)N)NC(=O)[C@H](CC(=O)O)NC(=O)[C@H](CCCCNC(=O)COCCOCCNC(=O)COCCOCCNC(=O)CC[C@H](NC(=O)CCCCCCCCCCCCCCCCC(=O)O)C(=O)O)NC(=O)C(C)(C)NC(=O)[C@@H](NC(=O)[C@H](CO)NC(=O)[C@H](CC(C)C)NC(=O)[C@H](CC(=O)O)NC(=O)[C@H](CO)NC(=O)[C@@H](NC(=O)[C@@](C)(CC)NC(=O)[C@@H](NC(=O)CNC(=O)[C@H](CCC(=O)O)NC(=O)C(C)(C)NC(=O)[C@@H](N)Cc1ccc(O)cc1)[C@@H](C)O)[C@@H](C)CC)[C@@H](C)CC)C(=O)N[C@@H](Cc1c[nH]cn1)C(=O)N[C@@H](CCC(N)=O)C(=O)NC(C)(C)C(=O)N[C@@H](CCC(=O)O)C(=O)N[C@@H](Cc1ccccc1)C(=O)N[C@H](C(=O)N[C@@H](CCC(=O)O)C(=O)N[C@@H](Cc1c[nH]c2ccccc12)C(=O)N[C@@H](CC(C)C)C(=O)N[C@@H](CC(C)C)C(=O)N[C@@H](C)C(=O)N[C@@H](CCC(N)=O)C(=O)NCC(=O)N1CCC[C@H]1C(=O)N[C@@H](CO)C(=O)N[C@@H](CO)C(=O)NCC(=O)N[C@@H](C)C(=O)N1CCC[C@H]1C(=O)N1CCC[C@H]1C(=O)N1CCC[C@H]1C(=O)N[C@@H](CO)C(N)=O)[C@@H](C)CC` [SEQ ID NO: 23, H2N-Y-Aib-E-G-T-Iva-I-S-D-L-S-I-Aib-K[{AEEA}2-gGlu-C18OH]-D-R-I-H-Q-Aib-E-F-I-E-W-L-L-A-Q-G-P-S-S-G-A-P-P-P-S-NH2] (H-Y[Aib]EGT[dIva]ISDLSI[Aib]K([AEEA-AEEA-γGlu-C18 diacid])DRIHQ[Aib]EFIEWLLAQGPSSGAPPPS-NH2) registered a solubility in data set [1] of 6500 µg/mL (≈ 1320 µM). Further, the EC50 was > 10 nM in data set [2] and 0.2 nM in data set [3] (read-out: hGIPR EC50). The maximal effect (Emax) in data set [3] (read-out: hGIPR Emax) stood at 91%. This molecule gave an IC50 in data set [4] of 0.2 nM.

By solubility is commonly meant the concentration that dissolves in the medium under given conditions. The low end stands for a poorly soluble substance, the high end for a readily soluble substance. The EC50 is the concentration needed to bring the measured effect to its halfway point. What is called Emax is the greatest response seen or fitted, relative to the assay's reference. In general, IC50 refers to the concentration that gives 50% inhibition. Low values mean higher potency, high ones lower potency.

Source of the values: patent US20240360194A1, “New Peptides as Potent and Selective GIP Receptor Agonists” (Sanofi, priority 2021, published 2024).
